Laboratory results published in ChEMBL document CHEMBL5365476, “VHL-Modified PROteolysis TArgeting Chimeras (PROTACs) as a Strategy to Evade Metabolic Degradation in In Vitro Applications” (J Med Chem, 2023).
Each block holds one molecule with its values, some of them ahead of it.

What was measured:
[1] = Metabolic stability in human hepatocytes assessed as half life; type: ADME, cell-based, Hepatocyte
[2] = target: von Hippel-Lindau disease tumor suppressor (Homo sapiens) (UniProt P40337); experiment: Binding affinity to 6-His tagged human VHL at 50 uM incubated for 1 hr by HTRF based assay relative to control
Sequence of von Hippel-Lindau disease tumor suppressor (Homo sapiens) (P40337 whole entry, looked up): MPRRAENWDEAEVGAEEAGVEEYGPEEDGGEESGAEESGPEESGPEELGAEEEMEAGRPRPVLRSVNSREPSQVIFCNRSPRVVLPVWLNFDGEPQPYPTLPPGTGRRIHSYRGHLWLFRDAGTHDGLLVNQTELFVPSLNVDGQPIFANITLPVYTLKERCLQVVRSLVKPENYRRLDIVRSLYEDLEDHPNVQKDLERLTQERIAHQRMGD

[3] = Drug metabolism in human hepatocytes assessed as M + 16 metabolite formation incubated for 240 mins by LC-MS/MS analysis; type: ADME, cell-based, Hepatocyte; conditions: 4 h
[4] = Drug metabolism in human hepatocytes assessed as M-200 metabolite formation incubated for 240 mins in presence of ZPP by LC-MS/MS analysis; type: ADME, cell-based, Hepatocyte; conditions: 4 h
[5] = Drug metabolism in HEK293 cells cytosol assessed as M-200 metabolite formation incubated for 60 mins in presence of 30 nM ZPP; type: ADME, subcellular; conditions: human, 1 h
[6] = Drug metabolism in human liver microsomes assessed as M-200 metabolite formation incubated for 60 mins in presence of 30 nM ZPP; type: ADME, Microsome; conditions: 1 h
[7] = Metabolic stability in HEK293 cells cytosol assessed as half life; type: ADME, subcellular; conditions: human, HEK293 cell cytosol
[8] = Drug metabolism in human hepatocytes assessed as M-200 metabolite formation incubated for 240 mins in presence of 3 uM ZPP by LC-MS/MS analysis; type: ADME, cell-based, Hepatocyte; conditions: 4 h
[9] = Drug metabolism in HEK293 cells cytosol assessed as M-525 metabolite formation; type: ADME, subcellular; conditions: human
[10] = Drug metabolism in human liver microsomes assessed as M-200 metabolite formation incubated for 60 mins in presence of 1 nM ZPP; type: ADME, Microsome; conditions: 1 h
[11] = Drug metabolism in human liver microsomes assessed as M-200 metabolite formation incubated for 60 mins; type: ADME, Microsome; conditions: 1 h
[12] = Drug metabolism in human hepatocytes assessed as M + 16 metabolite formation incubated for 240 mins in presence of ZPP by LC-MS/MS analysis; type: ADME, cell-based, Hepatocyte; conditions: 4 h
[13] = Drug metabolism in human liver cytosol assessed as M-200 metabolite formation incubated for 60 mins in presence of 30 nM ZPP; type: ADME, subcellular; conditions: 1 h
[14] = Drug metabolism in HEK293 cells cytosol assessed as M+16 metabolite formation incubated for 60 mins in presence of 1 to 30 nM ZPP; type: ADME, subcellular; conditions: human, 1 h
[15] = Drug metabolism in HEK293 cells cytosol assessed as M+16 metabolite formation incubated for 60 mins; type: ADME, subcellular; conditions: human, 1 h
[16] = Drug metabolism in human liver cytosol assessed as M-200 metabolite formation incubated for 60 mins in presence of 100 uM ZPP; type: ADME, subcellular; conditions: 1 h
[17] = Drug metabolism in HEK293 cells cytosol assessed as M-200 metabolite formation incubated for 60 mins; type: ADME, subcellular; conditions: human, 1 h

half-life [1]: 5.58 h | Activity [2]: 35%
Structure (SMILES): Cc1nc(C)c(-c2ccc(-c3c[nH]c([C@@H]4C[C@@H](O)CN4C(=O)[C@@H](N)C(C)(C)C)n3)cc2)s1

Drug metabolism [3]: Metabolite_Detected | Drug metabolism [14]: Metabolite_Detected | Drug metabolism [15]: Metabolite_Detected | Drug metabolism [16]: Metabolite_Detected | Drug metabolism [12]: Metabolite_Detected | half-life [1]: 2.01 h | Activity [2]: 73%
Structure (SMILES): Cc1ncsc1-c1ccc([C@H](C)NC(=O)[C@@H]2C[C@@H](O)CN2C(=O)[C@@H](N)C(C)(C)C)cc1

half-life [1]: 2.74 h | Activity [2]: 65%
Structure (SMILES): Cc1nc(C)c(-c2ccc([C@H](C)NC(=O)[C@@H]3C[C@@H](O)CN3C(=O)[C@@H](N)C(C)(C)C)cc2)s1.Cl

The remaining lines, values behind:

Structure (SMILES): Cc1ncsc1-c1ccc(-c2c[nH]c([C@@H]3C[C@@H](O)CN3C(=O)[C@@H](N)C(C)(C)C)n2)cc1
half-life [1]: 5.76 h | Activity [2]: 21%

Structure (SMILES): Cc1ncsc1-c1ccc([C@H](C)NC(=O)[C@@H]2C[C@@H](O)CN2C(=O)[C@@H](NC(=O)CCCCNC(=O)COc2c(-c3csc(N4CCOCC4)n3)ccc(F)c2F)C(C)(C)C)cc1
Drug metabolism [3]: Metabolite_Detected | Drug metabolism [4]: Metabolite_Detected | Drug metabolism [5]: Metabolite_Notdetected | Drug metabolism [6]: Metabolite_Notdetected | half-life [7]: 2.85 h | Drug metabolism [8]: Metabolite_Notdetected | Drug metabolism [9]: Metabolite_Detected | Drug metabolism [10]: Metabolite_Notdetected | Drug metabolism [11]: Metabolite_Notdetected | Drug metabolism [12]: Metabolite_Detected | Drug metabolism [13]: Metabolite_Notdetected

Structure (SMILES): Cc1nc(C)c(-c2ccc(-c3cnc([C@@H]4C[C@@H](O)CN4C(=O)[C@@H](NC(=O)CCCCNC(=O)COc4c(-c5csc(N6CCOCC6)n5)ccc(F)c4F)C(C)(C)C)[nH]3)cc2)s1
half-life [7]: 17.1 h

Structure (SMILES): Cc1ncsc1-c1ccc(-c2cnc([C@@H]3C[C@@H](O)CN3C(=O)[C@@H](NC(=O)CCCCNC(=O)COc3c(-c4csc(N5CCOCC5)n4)ccc(F)c3F)C(C)(C)C)[nH]2)cc1
Drug metabolism [17]: Metabolite_Notdetected | Drug metabolism [15]: Metabolite_Detected
